Experimental data: patent US6387900B1, “3(5)-ureido-pyrazole derivatives process for their preparation and their use as antitumor agents” (Pharmacia & Upjohn S.p.A., priority 1999, dated 2002)

| Compound | melting point [°C] |
| --- | --- |
| O=C(Nc1ccccc1)Nc1cc(C2CC2)n[nH]1 [Example 1, N-(3-cyclopropyl-1H-pyrazol-5-yl)-N′-phenylurea] | 162 to 164 |
| O=C(NCc1ccc(Cl)cc1Cl)Nc1cc(C2CC2)n[nH]1 [Example 2, N-(3-cyclopropyl-1H-pyrazol-5-yl)-N′-(2,4-dichlorobenzyl)urea] | 177 to 179 |
